Experiment [1] relates to peripheral CD8 lymphocytes (CD3+CD8+CD4−). Nature of the experiment: Peripheral lymphocyte activation, CD69 by flow cytometry: CD8 lymphocytes (Example 206). It is filed as in vivo, rhesus macaque. The text has this:
(§1) During the course of treatment with the compound of Example 4 as described in Example 204, peripheral lymphocyte activation was monitored in the groups dosed with the compound of Example 4 or the dosing vehicle of Example 201 (placebo), by measuring the expression of the early activation marker CD69 on various lymphocyte subsets by flow cytometry methodology. This methodology was used to quantify the percentage of immune cell subsets expressing the early activation marker. Standard data acquisition techniques were employed on a flow cytometer and by the use of antibodies conjugated to fluorescent molecules where the antibodies recognize rhesus macaque cell surface proteins on various immune cell subsets. In animals dosed with the compound of Example 4, whole blood samples were collected for each dose at various time points both at pre- and post-administration of compound. Total PBMCs were stained in the whole blood samples using antibodies that were chosen to be reactive to rhesus CD3, CD4, CD8, NKG2A, CD16 and CD56, each conjugated to different fluorescent probes to delineate CD3+CD4+CD8− lymphocytes, CD3+CD4−CD8+ lymphocytes and CD3-CD8+ NKG2A+CD16+ CD56+ NK cells. The flow cytometry data presented herein are from animals treated with the compound of Example 4.
On the technique in general: A flow cytometer gives signals particle by particle.

The test system of experiment [2] is peripheral CD4 lymphocytes (CD3+CD4+CD8−). Nature of the experiment: Peripheral lymphocyte activation, CD69 by flow cytometry: CD4 lymphocytes (Example 206). The format is in vivo, rhesus macaque.
Excerpt: as §1

Experiment [3] relates to polyfunctional proliferating CD8 T cells (CFSE low, IFNg+, TNFa+). Nature of the experiment: Induction of HIV-specific polyfunctional CD8 T cells ex vivo (Example 216). To be noted: PBMCs from 5 HIV-infected donors, HIV peptide pools. It is filed as cell-based, human. The procedure:
PBMCs from 5 HIV-infected donors (Donor IDs 178-180 and 182-183) on suppressive cART were isolated, as described previously, and stained with carboxyfluorescein succinimiyl ester (CFSE). PBMC cultures were treated with DMSO or the compound of Example 49 (GS-9620) at 0.1 or 1 uM. Cultures were incubated at 37° C. for 2 days and treated with 500 ng/ml 15-mer peptide pools derived from overlapping HIV gag, pol, nef, and env consensus peptides (JPT Peptide Technologies GmbH). Cells were incubated at 37° C. for 8 days. Cultures were split into duplicate sets and stained in dulbecco's phosphate buffered saline (DPBS) with LIVE/DEAD Fixable Aqua Dead Cell Stain (Life Technologies). The immune recall response was performed as follows. One culture set was treated with the same HIV peptide pools and the other set was treated with 500 ng/ml CMV/EBV/Flu/Tetanus (CEFT) peptides (JPT Peptide Technologies GmbH). After one hour at 37° C., cultures were treated with 0.7 μl GolgiStop (BD Biosciences) containing monensin and 1 μl GolgiPlug (BD Biosciences) containing brefeldin A. Cultures were incubated for 3 additional hours at 37° C. and stained for 15 minutes with anti-CD4-v450, anti-CD3-AlexaFlour 700, and anti CD8-APC-H7 (BD Biosciences). Cultures were fixed with IC Fixation Buffer (eBioscience) and permeabilized with Permeabilization Buffer (eBioscience). […]

The text below walks through data of patent US11116774B2, “Modulators of toll-like receptors for the treatment of HIV” (Gilead Sciences, Inc., priority 2014, dated 2021).

Each structure is given as a SMILES string.

Regarding `CCCCOc1nc(N)c2c(n1)N(Cc1ccc(CN3CCCC3)cc1)CC(=O)N2` [Example 4], the “mean maximum percent change in CD69 expression on CD8 lymphocytes” value in experiment [1] (all subsequent 0.3 mg/kg doses) was determined as 15.5%; in experiment [1] (dose 0.1 mg/kg, any time point (rise 24 to 72 hours post-dose), pre-dose range 3.3-12.6%) it was 7.8%; in experiment [1] (dose 0.2 mg/kg, pre-dose range 3.0-15.7%) it was 9.5%; in experiment [1] (first dose of 0.3 mg/kg, pre-dose range 5.0-14.4%), 17.3%. The “mean maximum percent change in CD69 expression on CD4 lymphocytes” value came to 1.7% in experiment [2] (all subsequent doses); 1.1% in experiment [2] (dose 0.1 mg/kg, any time point (rise 24 to 72 hours post-dose), pre-dose range 0.5-1.7%); 1.5% in experiment [2] (dose 0.2 mg/kg, pre-dose range 0.5-2%); 2.3% in experiment [2] (first dose of 0.3 mg/kg, pre-dose range 0.6-2.5%).
On to `CCCCOc1nc(N)c2c(n1)N(Cc1cccc(CN3CCCC3)c1)CC(=O)N2` [Example 49], for which the “increase of mean level of polyfunctional proliferating CD8 T cells compared to DMSO” value worked out at 9.0 fold in experiment [3] (0.1 uM, p<0.05) and 7.5 fold in experiment [3] (1 uM, p<0.005).
